This passage reports Chemotactic index results from ChEMBL document CHEMBL1142022, “Synthesis and evaluation of diverse analogs of amygdalin as potential peptidomimetics of peptide T” (Bioorg Med Chem Lett, 2005).

Common to all, as to type: functional
The target in assay [1] is T-cell surface glycoprotein CD4 (Homo sapiens) (UniProt P01730). Description: Chemotactic activity of compound measured as function of concentration of 10 uM compared to peptide T,[DA1a]peptide T and amygdalin.
Assay [2] has the same target. Description: Chemotactic activity of compound measured as function of concentration of 6 uM compared to peptide T,[DA1a]peptide T and amygdalin.
The target is the same in assay [3]. Description: Chemotactic activity of compound measured as function of concentration of 8 uM compared to peptide T,[DA1a]peptide T and amygdalin.
Assay [4] shares this target. Description: Chemotactic activity of compound measured as function of concentration of 11 uM compared to peptide T,[DA1a]peptide T and amygdalin.
The target is the same in assay [5]. Description: Chemotactic activity of compound measured as function of concentration of 9 uM compared to peptide T,[DA1a]peptide T and amygdalin.
The target is the same in assay [6]. Description: Chemotactic activity of compound measured as function of concentration of 7 uM compared to peptide T,[DA1a]peptide T and amygdalin.

Molecules are shown by their SMILES.

`COc1ccc(CO[C@@H]2O[C@@H](CO[C@@H]3O[C@@H](CO)[C@@H](O)[C@H](O)[C@@H]3O)[C@@H](O)[C@H](O)[C@@H]2O)c(OC)c1` came in with a Chemotactic index in assay [1] of 0.84.

Molecule `COc1ccc(CO[C@@H]2O[C@@H](CO[C@@H]3O[C@@H](CO)[C@@H](O)[C@H](O)[C@@H]3O)[C@@H](O)[C@H](O)[C@@H]2O)cc1` showed a Chemotactic index in assay [1] of 0.87. `CCC(O[C@@H]1O[C@@H](CO[C@@H]2O[C@@H](CO)[C@@H](O)[C@H](O)[C@@H]2O)[C@@H](O)[C@H](O)[C@@H]1O)c1ccccc1` (stereo not given in full) registered a Chemotactic index in assay [2] of 0.75.

For the molecule `CC(O[C@@H]1O[C@@H](CO[C@@H]2O[C@@H](CO)[C@@H](O)[C@H](O)[C@@H]2O)[C@@H](O)[C@H](O)[C@@H]1O)c1ccccc1` (stereo not given in full), the Chemotactic index in assay [3] came to 0.77. `C[C@H](N)C(=O)N[C@@H](CO)C(=O)N[C@H](C(=O)N[C@H](C(=O)N[C@H](C(=O)N[C@@H](CC(N)=O)C(=O)N[C@@H](Cc1ccc(O)cc1)C(=O)N[C@H](C(=O)O)[C@@H](C)O)[C@@H](C)O)[C@@H](C)O)[C@@H](C)O` yielded a Chemotactic index in assay [4] of 1.09.

For the molecule `C#CC(O[C@@H]1O[C@@H](CO[C@@H]2O[C@@H](CO)[C@@H](O)[C@H](O)[C@@H]2O)[C@@H](O)[C@H](O)[C@@H]1O)c1ccccc1` (stereo not given in full), in assay [2], the Chemotactic index stood at 0.79.

`OC[C@@H]1O[C@@H](OC[C@@H]2O[C@@H](OCc3ccccc3)[C@@H](O)[C@@H](O)[C@@H]2O)[C@@H](O)[C@@H](O)[C@@H]1O` registered a Chemotactic index in assay [3] of 0.76. Molecule `OC[C@@H]1O[C@@H](OC[C@@H]2O[C@@H](OCc3ccccc3Br)[C@@H](O)[C@@H](O)[C@@H]2O)[C@@H](O)[C@@H](O)[C@@H]1O` registered a Chemotactic index in assay [1] of 0.94. In turn, `C[C@@H](N)C(=O)N[C@@H](CO)C(=O)N[C@H](C(=O)N[C@H](C(=O)N[C@H](C(=O)N[C@@H](CC(N)=O)C(=O)N[C@@H](Cc1ccc(O)cc1)C(=O)N[C@H](C(N)=O)[C@@H](C)O)[C@@H](C)O)[C@@H](C)O)[C@@H](C)O` gave a Chemotactic index in assay [4] of 0.89. In the case of `N#CC(O[C@@H]1O[C@H](CO[C@@H]2O[C@H](CO)[C@@H](O)[C@H](O)[C@H]2O)[C@@H](O)[C@H](O)[C@H]1O)c1ccccc1` (single isomer, unassigned), the Chemotactic index in assay [1] was determined as 0.63. With `CC(C)(C)C(O[C@@H]1O[C@@H](CO[C@@H]2O[C@@H](CO)[C@@H](O)[C@H](O)[C@@H]2O)[C@@H](O)[C@H](O)[C@@H]1O)c1ccccc1` (stereo not given in full), the Chemotactic index in assay [5] stood at 0.84. In assay [3], `OC[C@@H]1O[C@@H](OC[C@@H]2O[C@@H](OCc3c4ccccc4cc4ccccc34)[C@@H](O)[C@@H](O)[C@@H]2O)[C@@H](O)[C@@H](O)[C@@H]1O` returned a Chemotactic index of 0.94. For `O=C(O)[C@H](O[C@@H]1O[C@@H](CO[C@@H]2O[C@@H](CO)[C@@H](O)[C@H](O)[C@@H]2O)[C@@H](O)[C@H](O)[C@@H]1O)c1ccccc1`, the Chemotactic index in assay [5] was 0.71. Regarding `NC(=O)[C@H](O[C@@H]1O[C@@H](CO[C@@H]2O[C@@H](CO)[C@@H](O)[C@H](O)[C@@H]2O)[C@@H](O)[C@H](O)[C@@H]1O)c1ccccc1`, in assay [6], the Chemotactic index stood at 0.84.

On to `OC[C@@H]1O[C@@H](OC[C@@H]2O[C@@H](OCCc3ccccc3)[C@@H](O)[C@@H](O)[C@@H]2O)[C@@H](O)[C@@H](O)[C@@H]1O`, for which the Chemotactic index in assay [5] stood at 0.7.
